According to patent US20120022121A1, “INDOLES, DERIVATIVES AND ANALOGS THEREOF AND USES THEREFOR” (priority 2007, published 2012):
Where two headings read alike, the source gives them in different places.

Assays:
Bcl-2 = assay: Western blot of anti- and pro-apoptosis proteins; format: cell-based, human; settings: LNCaP and PC-3, increasing concentration, 24 h
Description: (§1) Cell viability (LNCaP, PC-3 prostate, DU145, PPC-1, and TSU-Pr1 prostate cancer cell lines, HT-29 colon cancer cell line, and MCF-7 breast cancer cell line) was quantitated using the sulforhodamine B (SRB) assay after 96 h coincubation with different concentrations of compound in 96-well plates. Cell viability of leukemia cells (K562 and doxorubicin-resistant K562/Dox) was quantitated by MTT assay after 96 h coincubation with different concentrations of compound in 96-well plates. Drug-induced apoptosis was determined by anti-histone ELISA assay and DNA laddering. Cell cycle progression was assessed by propidium iodide staining and fluorescence-activated cell sorting (FACS) analysis. In vitro tubulin polymerization assay was determined by CytoDYNAMIX ScreenTM3 (CDS-03) kits according to the manufacturer's instructions. Anti-apoptosis protein (Bcl-2 and Bcl-xl) and pro-apoptosis protein (Bax) were examined in LNCaP and PC-3 after 24 h incubation with different concentrations of compound 13 by Western blot assay. In vivo PC-3 xenograft studies were conducted by i.v. dosing of 50 mg/kg, 100 mg/kg and 150 mg/kg for 2 weeks.
100 nM of compound 13 was incubated with LNCaP for 24 h and PC-3 for 48 h. […] The results are expressed as enrichment factor (Enrichment factor=OD of treated cells/OD from control cells). […]

[1] = Plasma pharmacokinetics in mice; format: in vivo; settings: for bioavailability: read-out: absolute bioavailability
Description: A single dose (10 mg/kg) and various routes of administration (intravenous, oral, and subcutaneous) were used in order to approximate its in vivo disposition and interpret the results of subchronic toxicity studies and forthcoming in vivo xenograft studies. Diindole 13 was administered to groups (n=60) of mice for each route of administration. Mice (n=5 per time point) were sacrificed at up to twelve different time points (pre-dose and up to 24 h post-dose), and plasma samples were stored at −80° C. until HPLC analysis. An HPLC/UV analytical method was developed and validated to determine diindole 13 concentrations in plasma, with a linear range of 0.02 to 20 μg/mL and intra- and inter-day coefficients of variation at all concentrations less than 6%.

Tubulin proteins = assay: Tubulin polymerization in vitro (absorbance 340 nm); format: biochemical; settings: 20 μM, 37° C., 30 minutes
Description: as §1, with “Anti-apoptosis protein (Bcl-2 and Bcl-xl) and pro-apoptosis protein (Bax) were examined in LNCaP and PC-3 after 24 h incubation with different concentrations of compound 13 by Western blot assay. In vivo PC-3 xenograft studies were conducted by i.v. dosing of 50 mg/kg, 100 mg/kg and 150 mg/kg for 2 weeks.” left out
Tubulin proteins (greater than 99% purity) were suspended (300 μg per sample) with 100 μl G-PEM buffer composed of 80 mM PIPES (piperazine-N,N′-bis(2-ethanesulfonic acid)), 2 mM MgCl2, 0.5 mM egtazic acid and 1.0 mM guanosine triphosphate (GTP), pH 6.9, plus 5% glycerol in the absence or presence of the compound 13 at 4° C. The sample mixture was transferred to the prewarmed 96-well plate and absorbance was detected each minute for 30 minutes at 340 nm at 37° C.

LNCaP cells = assay: Cell cycle distribution (PI staining, FACS); format: cell-based, human; settings: LNCaP cells, 0, 50, 100 and 200 nM, 24 h
Description: LNCaP cells were treated with 0, 50, 100 and 200 nM of compound 13 for 24 h (FIG. 11A). Cells were then harvested and fixed with 70% ethanol. Cell cycle distribution was determined by propidium iodide (P1) staining and analyzed by fluorescence-activated cell sorting (FACS) analysis.

CV-1 = assay: Cell viability SRB assay, 96 h; format: cell-based; settings: Cercopithecidae, CV-1 fibroblast cell line
Description: Cells were plated in 96-well plates at a density of 800-5,000 cells/well, depending on the cell line, in their required growth media containing 10% fetal bovine serum. Preliminary studies were performed with each cell line using a variety of cell densities and incubation times to determine appropriate seeding densities. The compound of interest was dissolved in DMSO, diluted in cell culture medium (final DMSO concentration was less than 0.5% v/v), and added to quadruplicate wells at final concentrations ranging from 0 to 100 μM. Control wells to which only drug-free vehicle was added were included as negative controls.
Cells were incubated for 96 hour at 37° C. in a humidified atmosphere containing 5% carbon dioxide.

PC-3 cells = assay: Indirect immunofluorescence microscopy of microtubules; format: cell-based, human; settings: 24 h, anti-α-tubulin-FITC
Description: PC-3 cells were plated on poly-D-lysine coated glass cover slips in 6-well plates (5×10^4 cells/well) the day before treatment. After cells were incubated with cytotoxic agents at 37° C. for 24 h, cells were fixed on the cover slips with 4% formaldehyde in PBS for 10 min and permeabilized by 2% Triton-X in PBS for 5 min at rt. Fixed cells were blocked with 3% bovine serum albumin in TBST for 30 min and incubated with anti-α-tubulin-FITC antibody (1:100 dilution) at 4° C. overnight. Cover slips were mounted on slides using mounting medium with 4′,6-diamidino-2-phenylindole (DAPI), followed by microscopic analysis with a Zeiss Axioplan 2 fluorescent microscope (Carl Zeiss, Thornwood, N.Y.). Images were acquired with a Zeiss Axiocam HRc, using Zeiss AxioVision.

[2] = mouse, plasma, iv, 10 mg/kg, I.V.
[3] = mouse, plasma, po, 10 mg/kg, P.O.
[4] = mouse, plasma, sc, 10 mg/kg, S.C.

O=C(c1cccc(-c2cc3ccccc3[nH]2)c1)c1cc2ccccc2[nH]1 [Compound 13, (1H-indol-2-yl)-[3-(1H-indol-2-yl)phenyl]methanone]
Bcl-2 level by Western blot (Bcl-2): decreased
metabolism (LC/MS/MS analysis of metabolites) [1]: extensive oxidative metabolism with subsequent sulfation
volume of distribution relative to total body water (0.6 L/kg) [1]: about 10 fold
F ([1]; 10 mg/kg, I.V.): 1.00
CL ([1]; 10 mg/kg, P.O.): 238 mL/min/kg
F ([1]; 10 mg/kg, P.O.): 0.20
CL ([1]; 10 mg/kg, S.C.): 95 mL/min/kg
F ([1]; 10 mg/kg, S.C.): 0.73
drug excreted unchanged in urine and feces ([1]; after intravenous administration): less than 5%
hepatic extraction ([1]; from clearance and hepatic blood flow […]): exceeding 0.75
bioavailability ([1]; mouse, plasma, 10 mg/kg, oral (P.O.)): 29%
AUC [1, 2]: 2410 ng·h/mL
Cmax [1, 2]: 2860 ng/mL
Tmax [1, 2]: 0.08 h
clearance [1, 2]: ~66.7 mL/min/kg
half-life [1, 2]: < 3 h
Vd ([1]; mouse, plasma, iv, 10 mg/kg, I.V., read-out: Vss): 6.35 L/kg
AUC [1, 3]: 690 ng·h/mL
Cmax [1, 3]: 120 ng/mL
Tmax [1, 3]: ~3 h
half-life [1, 3]: 2.97 h
AUC [1, 4]: 1770 ng·h/mL
Cmax [1, 4]: 310 ng/mL
Tmax [1, 4]: ~3 h
half-life [1, 4]: 4.52 h
bioavailability ([1]; mouse, plasma, sc, 10 mg/kg, subcutaneous (S.C.)): 73%
effect on tubulin polymerization (Tubulin proteins): completely block
cell cycle arrest (LNCaP cells): induces G2/M phase arrest
IC50 (CV-1): 78.3 ± 35 nM

CC[C@]1(O)C[C@@H]2CN(CCc3c([nH]c4ccccc34)[C@@](C(=O)OC)(c3cc4c(cc3OC)N(C)[C@H]3[C@@](O)(C(=O)OC)[C@H](OC(C)=O)[C@]5(CC)C=CCN6CC[C@]43[C@@H]65)C2)C1 [Vinblastine]
microtubule changes by immunofluorescence (PC-3 cells): short microtubules
